pIC50: −log10 of the molar value. Where a name gives a salt, the structure may show the parent alone. Bounds are passed on as bounds.

The assay concerns the target T1, recombinant IRAK-4 kinase (Homo sapiens, UniProt Q9NWZ3).
T1 construct: purchased Millipore, USA
T1 sequence (Q9NWZ3 1-460): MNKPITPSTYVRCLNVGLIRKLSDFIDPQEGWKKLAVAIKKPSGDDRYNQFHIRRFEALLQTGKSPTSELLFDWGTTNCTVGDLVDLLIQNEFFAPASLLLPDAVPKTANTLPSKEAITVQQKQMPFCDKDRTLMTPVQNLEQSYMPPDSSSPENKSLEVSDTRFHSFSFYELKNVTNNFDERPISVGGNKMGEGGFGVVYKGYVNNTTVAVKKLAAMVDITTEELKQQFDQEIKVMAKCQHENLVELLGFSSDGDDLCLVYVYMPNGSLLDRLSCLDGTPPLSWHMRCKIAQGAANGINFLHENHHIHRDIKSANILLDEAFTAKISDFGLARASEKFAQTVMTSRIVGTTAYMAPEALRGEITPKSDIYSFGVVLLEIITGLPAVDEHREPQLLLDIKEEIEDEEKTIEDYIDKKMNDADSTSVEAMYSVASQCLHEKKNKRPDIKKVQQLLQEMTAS
The assay can be described thus: IRAK-4 Biochemical Assay (TR-FRET). The note with it: 5 ng IRAK-4 kinase, 100 nM Biotin Histone H3, 20 μM ATP, 30 minutes pre-incubation, read-out: IC50 values for IRAK4 activity. Summed up: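 Recombinant IRAK-4 (5 ng) pre-incubated with compound 30 min at room temperature in Tris-HCl pH 7.5 with MgCl2/MnCl2, then 100 nM biotin-histone H3 and 20 μM ATP added for 30 min. Stopped with EDTA; phospho-Ser10 read by TR-FRET (Eu-antibody/APC-streptavidin).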
On the technique in general: Time-resolved FRET reads energy transfer from a long-lived donor to a nearby acceptor.
Consider `COc1ccc(-c2nc(C(=O)Nc3cc4oc(N5CCOCC5)nc4nc3N3CC[C@@H](O)C3)co2)cn1` [Example 105, (R)—N-(5-(3-hydroxypyrrolidin-1-yl)-2-morpholinooxazolo[4,5-b]pyridin-6-yl)-2-(6-methoxypyridin-3-yl)oxazole-4-carboxamide], for which the pIC50 is below 7.00. Next, `Cc1cc(-c2nc(C(=O)Nc3cc4sc(N5CCOCC5)nc4nc3N3CC[C@H](O)C3)co2)ccn1` [Example 71, (S)—N-(5-(3-hydroxypyrrolidin-1-yl)-2-morpholinothiazolo[4,5-b]pyridin-6-yl)-2-(2-methylpyridin-4-yl)oxazole-4-carboxamide]: above 7.30; `Cc1cc(-c2nc(C(=O)Nc3cc4sc(N5CCOCC5)nc4nc3N3CCC[C@@H](O)C3)co2)ccn1` [Example 94, (R)—N-(5-(3-hydroxypiperidin-1-yl)-2-morpholinothiazolo[4,5-b]pyridin-6-yl)-2-(2-methylpyridin-4-yl)oxazole-4-carboxamide]: above 7.30. Turning to `Cc1cc(-c2nc(C(=O)Nc3cc4oc(N5CCCC5)nc4nc3N3CCCCC3)co2)ccn1` [Example 48, 2-(2-methylpyridin-4-yl)-N-(5-(piperidin-1-yl)-2-(pyrrolidin-1-yl)oxazolo[4,5-b]pyridin-6-yl)oxazole-4-carboxamide hydrochloride], the pIC50 is below 7.00.

On to `Cc1cc(-c2nc(C(=O)Nc3cc4oc(N5CCOCC5)nc4nc3N3CCN(C)CC3)co2)ccn1` [Example 25, N-(5-(4-methylpiperazin-1-yl)-2-morpholinooxazolo[4,5-b]pyridin-6-yl)-2-(2-methylpyridin-4-yl)oxazole-4-carboxamide], for which the pIC50 is above 7.30.

Consider `Cc1cc(-c2ccc(C(=O)Nc3cc4sc(N5CCOCC5)nc4nc3N3CCCCC3)o2)ccn1` [Example 90, 5-(2-methylpyridin-4-yl)-N-(2-morpholino-5-(piperidin-1-yl)thiazolo[4,5-b]pyridin-6-yl)furan-2-carboxamide], for which the pIC50 was above 7.30. For `CC(=O)Nc1cc(-c2nc(C(=O)Nc3cc4sc(N5CCOCC5)nc4nc3N3CCCC(O)C3)co2)ccn1` (centres unmarked) [Example 127, 2-(2-acetamidopyridin-4-yl)-N-(5-(3-hydroxypiperidin-1-yl)-2-morpholinothiazolo[4,5-b]pyridin-6-yl)oxazole-4-carboxamide], the pIC50 was above 7.30. The result for `Cc1cc(-c2nc(C(=O)Nc3cc4sc(N5CCOCC5)nc4nc3N3CCCCC3)co2)ccn1` [Example 20, 2-(2-methylpyridin-4-yl)-N-(2-morpholino-5-(piperidin-1-yl)thiazolo[4,5-b]pyridin-6-yl)oxazole-4-carboxamide] reads above 7.30; that for `Cc1cc(-c2nc(C(=O)Nc3cc4sc(N5CCCCC5)nc4nc3N3CCCCC3)co2)ccn1` [Example 23, N-(2,5-di(piperidin-1-yl)thiazolo[4,5-b]pyridin-6-yl)-2-(2-methylpyridin-4-yl)oxazole-4-carboxamide], above 7.30. With `Nc1cc(-c2nc(C(=O)Nc3cc4sc(N5CCOCC5)nc4nc3N3CCC(F)CC3)co2)ccn1` [Example 131, 2-(2-aminopyridin-4-yl)-N-(5-(4-fluoropiperidin-1-yl)-2-morpholinothiazolo[4,5-b]pyridin-6-yl)oxazole-4-carboxamide hydrochloride], the pIC50 was above 7.30.

Take `O=C(Nc1cc2oc(N3CCOCC3)nc2nc1N1CCCCC1)c1cccc(Cl)n1` [Example 8, 6-chloro-N-(2-morpholino-5-(piperidin-1-yl)oxazolo[4,5-b]pyridin-6-yl)picolinamide]: the pIC50 is above 7.30. With `COc1ccc(-c2nc(C(=O)Nc3cc4oc(N5CCCCC5)nc4nc3N3CCCCC3)co2)cn1` [Example 26, N-(2,5-di(piperidin-1-yl)oxazolo[4,5-b]pyridin-6-yl)-2-(6-methoxypyridin-3-yl)oxazole-4-carboxamide], the pIC50 is above 7.30.

On to `Cc1cc(-c2nc(C(=O)Nc3cc4sc(N5C[C@@H](C)O[C@@H](C)C5)nc4nc3N3CCCCC3)co2)ccn1` [Example 53, N-(2-((2S,6R)-2,6-dimethylmorpholino)-5-(piperidin-1-yl)thiazolo[4,5-b]pyridin-6-yl)-2-(2-methylpyridin-4-yl)oxazole-4-carboxamide], for which the pIC50 was above 7.30.

Take `Cc1cc(-c2nc(C(=O)Nc3cc4oc(N5CCOCC5)nc4nc3N3CCC3)co2)ccn1` [Example 110, N-(5-(azetidin-1-yl)-2-morpholinooxazolo[4,5-b]pyridin-6-yl)-2-(2-methylpyridin-4-yl)oxazole-4-carboxamide]: the pIC50 was above 7.30. With `Cc1cc(-c2ccc(C(=O)Nc3cc4sc(N5CCOCC5)nc4nc3N3CCC[C@@H](O)C3)o2)ccn1` [Example 95, (R)—N-(5-(3-hydroxypiperidin-1-yl)-2-morpholinothiazolo[4,5-b]pyridin-6-yl)-5-(2-methylpyridin-4-yl)furan-2-carboxamide], the pIC50 was above 7.30. The result for `Cc1cc(-c2ccc(C(=O)Nc3cc4sc(N5CCOCC5)nc4nc3N3CCCC(F)C3)o2)ccn1` (centres unmarked) [Example 102, N-(5-(3-fluoropiperidin-1-yl)-2-morpholinothiazolo[4,5-b]pyridin-6-yl)-5-(2-methylpyridin-4-yl)furan-2-carboxamide] reads above 7.30; that for `Cc1cc(-c2nc(C(=O)Nc3cc4sc(N5CCOCC5)nc4nc3N3CC[C@@H](O)C3)co2)ccn1` [Example 85, (R)—N-(5-(3-hydroxypyrrolidin-1-yl)-2-morpholinothiazolo[4,5-b]pyridin-6-yl)-2-(2-methylpyridin-4-yl)oxazole-4-carboxamide], above 7.30.

As usually defined, the pIC50 is the IC50 on a negative log10 scale, so that one unit is a factor of ten.
